Test results reported in patent publication US6506780B2, “Benzophenones and sulfones as inhibitors of glycine uptake” (Pfizer Inc., priority 2000, dated 2003).
Structures can show the parent of a compound that is named as a salt.

System: not given
Settings: not given

`Cc1ccc(C(=O)c2ccc(OC(CCN(C)CC(=O)O)c3ccc(F)cc3)cc2)nc1` (stereo not shown) and `Cc1ccc(C(=O)c2ccc(OC(CCN(C)CC(=O)O)c3ccc(F)cc3)cc2)cc1` (stereo not shown) (as salt: salt) cannot be ordered by melting point: 55 to 65 °C for the first, 60 to 70 °C for the second.

`CN(CCC(Oc1ccc(C(=O)c2cc(C(F)(F)F)cc(C(F)(F)F)c2)cc1)c1ccc(F)cc1)CC(=O)O` (stereo not shown) and `CN(CCC(Oc1ccc(C(=O)c2ccc(C(F)(F)F)cc2)cc1)c1ccc(F)cc1)CC(=O)O` (stereo not shown) (as salt: salt) cannot be ordered by melting point: 60 to 75 °C for the first, 58 to 72 °C for the second.

`CN(CCC(Oc1ccc(C(=O)c2nccs2)cc1)c1ccc(Cl)cc1)CC(=O)O` (stereo not shown) and `CN(CCC(Oc1ccc(C(=O)c2nccs2)cc1)c1ccc(F)cc1)CC(=O)O` (stereo not shown) (as salt: salt) cannot be ordered by melting point: 80 to 100 °C for the first, 98 to 108 °C for the second.

First: CN(CCC(Oc1ccc(C(=O)c2ccncc2)cc1)c1ccc(Cl)cc1)CC(=O)O (stereo not shown)
Second: CN(CCC(Oc1ccc(C(=O)c2ccncc2)cc1)c1ccc(F)cc1)CC(=O)O (stereo not shown) (as salt: salt)
The melting point of the first is higher: 72 to 82 °C for the first, 52 to 65 °C for the second.

`CN(CCC(Oc1cccc(C(=O)c2ccncc2)c1)c1ccc(F)cc1)CC(=O)O` (stereo not shown) and `CN(CCC(Oc1cccc(C(=O)c2ccncc2)c1)c1ccc(Cl)cc1)CC(=O)O` (stereo not shown) cannot be ordered by melting point: 60 to 70 °C for the first, 68 to 78 °C for the second.

`CN(CCC(Oc1ccc(C(=O)c2ccc3ccccc3c2)cc1)c1ccccc1)CC(=O)O` (stereo not shown) (as salt: salt) and `CN(CCC(Oc1ccc(C(=O)c2ccc3ccccc3c2)cc1)c1ccc(F)cc1)CC(=O)O` (stereo not shown) (as salt: salt) cannot be ordered by melting point: 77 to 89 °C for the first, 87 to 97 °C for the second.

`CN(CCC(Oc1ccc(C(=O)c2ccc(C(F)(F)F)cc2)cc1)c1ccccc1)CC(=O)O` (stereo not shown) (as salt: salt) and `CN(CCC(Oc1ccc(C(=O)c2ccc(F)cc2)cc1)c1ccccc1)CC(=O)O` (stereo not shown) (as salt: salt) fall in the same range of melting point: 65 to 83 °C for the first, 65 to 83 °C for the second.

First: Cc1ccc(C(=O)c2ccc(OC(CCN(C)CC(=O)O)c3ccccc3)cc2)cc1 (stereo not shown) (as salt: salt)
Second: Cc1ccc(C(=O)c2ccc(OC(CCN(C)CC(=O)O)c3ccc(Cl)cc3)cc2)cc1 (stereo not shown) (as salt: salt)
The melting point of the first is higher: 85 to 95 °C for the first, 65 to 71 °C for the second.

Compared with `CN(CCC(Oc1ccc(C(=O)c2ccc(Cl)cc2)cc1)c1ccc(F)cc1)CC(=O)O` (stereo not shown) (as salt: salt), `CN(CCC(Oc1ccc(C(=O)c2ccc(Cl)cc2)cc1)c1ccc(Cl)cc1)CC(=O)O` (stereo not shown) (as salt: salt) is lower in melting point: 71 to 85 °C for the first, 63 to 68 °C for the second.

First: COc1ccc(C(=O)c2ccc(OC(CCN(C)CC(=O)O)c3ccc(F)cc3)cc2)cc1 (stereo not shown) (as salt: salt)
Second: COc1ccc(C(=O)c2ccc(OC(CCN(C)CC(=O)O)c3ccc(Cl)cc3)cc2)cc1 (stereo not shown) (as salt: salt)
The melting point of the first is higher: 75 to 85 °C for the first, 60 to 70 °C for the second.

First: CN(CCC(Oc1ccc(C(=O)c2cccc3ccccc23)cc1)c1ccc(F)cc1)CC(=O)O (stereo not shown) (as salt: salt)
Second: CN(CCC(Oc1ccc(C(=O)c2ccccc2F)cc1)c1ccc(F)cc1)CC(=O)O (stereo not shown) (as salt: salt)
The melting point of the first is higher: 91 to 100 °C for the first, 65 to 75 °C for the second.

`Cc1cccc(C(=O)c2ccc(OC(CCN(C)CC(=O)O)c3ccc(F)cc3)cc2)c1C` (stereo not shown) (as salt: salt) and `Cc1cccc(C(=O)c2ccc(OC(CCN(C)CC(=O)O)c3ccc(Cl)cc3)cc2)c1C` (stereo not shown) (as salt: salt) cannot be ordered by melting point: 83 to 93 °C for the first, 85 to 93 °C for the second.

First: CN(CCC(Oc1ccc(C(=O)c2ccc(F)cc2F)cc1)c1ccc(F)cc1)CC(=O)O (stereo not shown) (as salt: salt)
Second: CN(CCC(Oc1ccc(C(=O)c2ccc(F)cc2F)cc1)c1ccc(Cl)cc1)CC(=O)O (stereo not shown) (as salt: salt)
The melting point of the first is lower: 65 to 75 °C for the first, 75 to 85 °C for the second.

`Cc1cccc(C(=O)c2ccc(OC(CCN(C)CC(=O)O)c3ccc(F)cc3)cc2)c1` (stereo not shown) (as salt: salt) and `CN(CCC(Oc1ccc(C(=O)c2ccccc2)cc1)c1ccc(F)cc1)CC(=O)O` (stereo not shown) (as salt: salt) cannot be ordered by melting point: 75 to 85 °C for the first, 80 to 95 °C for the second.

Compared with `CN(CCC(Oc1ccc(C(=O)c2ccsc2)cc1)c1ccc(F)cc1)CC(=O)O` (stereo not shown) (as salt: salt), `CN(CCC(Oc1ccc(C(=O)c2ccsc2)cc1)c1ccc(Cl)cc1)CC(=O)O` (stereo not shown) (as salt: salt) is higher in melting point: 65 to 75 °C for the first, 91 to 110 °C for the second.

First: CN(CCC(Oc1ccc(C(=O)c2cc3ccccc3s2)cc1)c1ccc(F)cc1)CC(=O)O (stereo not shown) (as salt: salt)
Second: CN(CCC(Oc1ccc(C(=O)c2cc3ccccc3s2)cc1)c1ccc(Cl)cc1)CC(=O)O (stereo not shown) (as salt: salt)
The melting point of the first is lower: 90 to 100 °C for the first, 101 to 112 °C for the second.

`CN(CCC(Oc1ccc(C(=O)c2ccccn2)cc1)c1ccc(F)cc1)CC(=O)O` (stereo not shown) (as salt: salt) and `Cc1cccnc1C(=O)c1ccc(OC(CCN(C)CC(=O)O)c2ccc(F)cc2)cc1` (stereo not shown) (as salt: salt) cannot be ordered by melting point: 68 to 80 °C for the first, 65 to 73 °C for the second.

First: Cc1cnc(C(=O)c2ccc(OC(CCN(C)CC(=O)O)c3ccc(F)cc3)cc2)s1 (stereo not shown) (as salt: salt)
Second: Cc1cnc(C(=O)c2ccc(OC(CCN(C)CC(=O)O)c3ccc(Cl)cc3)cc2)s1 (stereo not shown) (as salt: salt)
The melting point of the first is lower: 95 to 110 °C for the first, 182 to 192 °C for the second.

First: CN(CCC(Oc1ccc(C(=O)c2nc3ccccc3s2)cc1)c1ccc(F)cc1)CC(=O)O (stereo not shown) (as salt: salt)
Second: CN(CCC(Oc1ccc(C(=O)c2c(F)cccc2F)cc1)c1ccc(F)cc1)CC(=O)O (stereo not shown) (as salt: salt)
The melting point of the first is higher: 105 to 111 °C for the first, 77 to 87 °C for the second.

First: CN(CCC(Oc1ccc(C(=O)c2ccc(C(F)(F)F)cc2)cc1)c1ccc(Cl)cc1)CC(=O)O (stereo not shown) (as salt: salt)
Second: CN(CCC(Oc1ccc(C(=O)c2ccccc2F)cc1)c1ccc(Cl)cc1)CC(=O)O (stereo not shown) (as salt: salt)
The melting point of the first is lower: 63 to 70 °C for the first, 75 to 85 °C for the second.

First: CC(C)c1ccc(C(=O)c2ccc(OC(CCN(C)CC(=O)O)c3ccc(F)cc3)cc2)cc1 (stereo not shown) (as salt: salt)
Second: CN(CCC(Oc1ccc(S(=O)(=O)c2ccccc2)cc1)c1ccccc1)CC(=O)O (stereo not shown) (as salt: salt)
The melting point of the first is lower: 70 to 80 °C for the first, 95 to 100 °C for the second.

System: NMDA receptor
Settings: effect blocked by a specific NMDA-site antagonist and a glycine-site antagonist; cited from earlier work

For `CN(CCC(Oc1ccc(-c2ccccc2)cc1)c1ccc(F)cc1)CC(=O)O` (stereo not shown) [NFPS], the “post synaptic current driven by the NMDA receptor” value is given as “increased the post synaptic current driven by the NMDA receptor”.
